Results as given in publication PMC11905058, “Novel Leech Antimicrobial Peptides, Hirunipins: Real‐Time 3D Monitoring of Antimicrobial and Antibiofilm Mechanisms Using Optical Diffraction Tomography” (Advanced Science, 2025).
Residues, ends and D or L forms follow the SMILES beside them. No end group written: not given here.

What was measured:
MDRPA (314-69) = format: cell-based, Pseudomonas aeruginosa; conditions: 24 h
Description: (§1) The MICs of the peptides were measured by the Clinical and Laboratory Standards Institute (CLSI) broth microdilution method, as outlined in a previous study.^[ [26], [27] ^]
(§2) Microbial Strains and Cell Lines: Multiple bacterial strains were used in this study. Standard stains included Escherichia coli (KCTC 1682), Pseudomonas aeruginosa (KCTC 1637), Staphylococcus aureus (KCTC1621) and Staphylococcus epidermidis (KCTC 1917) supplied from the Korean Collection for Type Cultures (KCTC) of the Korea Research Institute of Bioscience and Biotechnology (KRIBB). Clinically isolated multidrug-resistant bacteria included multidrug-resistant Klebsiella pneumonia (MDRKP 328-83), multidrug-resistant Acinetobacter baumannii (MDRAB 329-53), multidrug-resistant Pseudomonas aeruginosa (MDRPA 314-69), multidrug-resistant Enterobacter cloacae (MDRE 328-84) and multidrug-resistant Escherichia coli (MDREC 329-66) provided from Hospital of Chosun University, Korea. All bacterial strains were stored in 20% glycerol at −80 °C. For the subsequent experiments, the bacteria were recovered and cultured in the corresponding enrichment broth at 37 °C. The mouse macrophage RAW264.7, mouse fibroblast NIH-3T3 and human keratinocyte HaCat cells were cultured in Dulbecco’s modified Eagle’s medium (DMEM), supplemented with 10% (v/v) of fetal bovine serum (Sigma-Aldrich), 100 U/mL of penicillin and 0.1 mg/mL of streptomycin, at 37 °C in the presence of 5% CO2
(§3) Minimal Inhibitory Concentrations (MICs): Bacteria were grown to mid-logarithmic phase and diluted in Mueller-Hinton broth (MHB) (Difco). The bacterial suspension (1×10^6 CFU/well) was added to a 96-well microtiter plate along with a two-fold serial dilution of samples. The plate was incubated at 37 °C for 24 hours and the bacterial growth inhibition was assessed by measuring the optical density using an ELISA plate reader. The minimum inhibitory concentration (MIC) was defined as the lowest concentration of samples that prevented visible bacterial growth.

MDREC (329-66) = format: cell-based, Escherichia coli; conditions: 24 h
Description: as §1, §2, §3

MDRAB (329-53) [1] = format: cell-based, Acinetobacter baumannii; conditions: 24 h
Description: as §1, §2, §3

[2] = test system: Staphylococcus aureus [KCTC1621]; format: cell-based; conditions: KCTC1621, 24 h
Description: as §1, §3

[3] = test system: Pseudomonas aeruginosa [KCTC 1637]; format: cell-based; conditions: KCTC 1637, 24 h
Description: as §1, §3

[4] = test system: Staphylococcus epidermidis [KCTC 1917]; format: cell-based; conditions: KCTC 1917, 24 h
Description: as §1, §3

[5] = test system: Escherichia coli [KCTC 1682]; format: cell-based; conditions: KCTC 1682, 24 h
Description: as §1, §3

MDRE (328-84) = format: cell-based, Enterobacter cloacae; conditions: 24 h
Description: as §1, §2, §3

MDRKP (328-83) = format: cell-based, Klebsiella pneumonia; conditions: 24 h
Description: as §1, §2, §3

S. aureus (KCTC1621) = format: cell-based, Staphylococcus aureus; conditions: KCTC1621, 24 h
Description: as §3, with “The salt sensitivity of the peptides was also analyzed. […] The MIC values in the physiological environment were determined as described above, and data were acquired from three independent assays performed in triplicate. Minimal” for “Minimal”

E. coli (KCTC 1682) = format: cell-based, Escherichia coli; conditions: KCTC 1682, 24 h
Description: as §3, with “The salt sensitivity of the peptides was also analyzed. […] The MIC values in the physiological environment were determined as described above, and data were acquired from three independent assays performed in triplicate. Minimal” for “Minimal”

MDRAB (329-53) [6] = test system: MDRAB (329-53)
Description: Synergy testing by checkerboard assay: Briefly, each 96-well microtiter plate was inoculated with two-fold serial dilutions of two antibiotics, ranging from 1/8 MIC to 2 MIC, such that one antibiotic was inoculated in the columns and the other in the rows. Then, MDRAB (329-53) cells were inoculated at a concentration of 1× 10^6 CFU/mL. The plates were incubated overnight under static conditions and observed visually.

Molecule	Minimum inhibitory concentrations, MDRPA (314-69) (MDRPA (314-69)) [µg/mL]	Minimum inhibitory concentrations, MDREC (329-66) (MDREC (329-66)) [µg/mL]	Minimum inhibitory concentrations, MDRAB (329-53) (MDRAB (329-53) [1]) [µg/mL]	Minimum inhibitory concentration (MIC), Staphylococcus aureus [KCTC1621] [2] [µg/mL]	Minimum inhibitory concentration (MIC), Pseudomonas aeruginosa [KCTC 1637] [3] [µg/mL]	Minimum inhibitory concentration (MIC), Staphylococcus epidermidis [KCTC 1917] [4] [µg/mL]	Minimum inhibitory concentration (MIC), Escherichia coli [KCTC 1682] [5] [µg/mL]	Minimum inhibitory concentrations, MDRE (328-84) (MDRE (328-84)) [µg/mL]	Minimum inhibitory concentrations, MDRKP (328-83) (MDRKP (328-83)) [µg/mL]	MIC against S. aureus (KCTC1621), 4 µM FeCl3 (S. aureus (KCTC1621)) [µg/mL]	MIC against S. aureus (KCTC1621), 6 µM NH4Cl (S. aureus (KCTC1621)) [µg/mL]	MIC against S. aureus (KCTC1621), 1 mM MgCl2 (S. aureus (KCTC1621)) [µg/mL]	MIC against S. aureus (KCTC1621), 2.5 mM CaCl2 (S. aureus (KCTC1621)) [µg/mL]	MIC against S. aureus (KCTC1621), 4.5 mM KCl (S. aureus (KCTC1621)) [µg/mL]	MIC against S. aureus (KCTC1621), 150 mM NaCl (S. aureus (KCTC1621)) [µg/mL]	MIC against S. aureus (KCTC1621), 25% Human serum (S. aureus (KCTC1621)) [µg/mL]	MIC against S. aureus (KCTC1621), Control (S. aureus (KCTC1621)) [µg/mL]	MIC against E. coli (KCTC 1682), 4 µM FeCl3 (E. coli (KCTC 1682)) [µg/mL]	MIC against E. coli (KCTC 1682), 6 µM NH4Cl (E. coli (KCTC 1682)) [µg/mL]	MIC against E. coli (KCTC 1682), 1 mM MgCl2 (E. coli (KCTC 1682)) [µg/mL]	also measured
LLKKLLRSLIKPAIMKIINTPPQEKLQK-NH2 [Hirunipin 1]	64	64	>128	64	32	32	64	>128	>128	64	256	256	256	256	256	256	64	128	128	256	MIC against E. coli (KCTC 1682), 2.5 mM CaCl2 (E. coli (KCTC 1682)): 256 µg/mL; MIC against E. coli (KCTC 1682), 4.5 mM KCl (E. coli (KCTC 1682)): 256 µg/mL; MIC against E. coli (KCTC 1682), 150 mM NaCl (E. coli (KCTC 1682)): 256 µg/mL; MIC against E. coli (KCTC 1682), 25% Human serum (E. coli (KCTC 1682)): 128 µg/mL; MIC against E. coli (KCTC 1682), Control (E. coli (KCTC 1682)): 64 µg/mL
MKSINLKKVVKSIIKKILNSSF-NH2 [Hirunipin 2]	16	16	64	32	32	32	32	32	128	32	16	32	32	32	32	64	32	8	8	32	MICB: MIC of hirunipin 2 alone (MDRAB (329-53) [6]): 64 µg/mL; MIC against E. coli (KCTC 1682), 2.5 mM CaCl2 (E. coli (KCTC 1682)): 8 µg/mL; MIC against E. coli (KCTC 1682), 4.5 mM KCl (E. coli (KCTC 1682)): 8 µg/mL; MIC against E. coli (KCTC 1682), 150 mM NaCl (E. coli (KCTC 1682)): 16 µg/mL; MIC against E. coli (KCTC 1682), 25% Human serum (E. coli (KCTC 1682)): 64 µg/mL; MIC against E. coli (KCTC 1682), Control (E. coli (KCTC 1682)): 32 µg/mL
IIIIKMHKTRKEKTQSILSAPVGLLTTL [LP7]	–	–	–	>128	>128	>128	>128	–	–	–	–	–	–	–	–	–	–	–	–	–	–
CC[C@H](C)[C@H](NC(=O)[C@@H]1CCCN1C(=O)[C@H](Cc1ccccc1)NC(=O)[C@H](CCC(N)=O)NC(=O)[C@H](CO)NC(=O)[C@H](CCCNC(=N)N)NC(=O)[C@@H](N)Cc1ccccc1)C(=O)N[C@@H](CS)C(=O)N[C@@H](CCCCN)C(=O)N[C@@H](CC(N)=O)C(=O)N[C@@H](CC(C)C)C(=O)N[C@H](C(=O)N[C@@H](CC(N)=O)C(=O)N[C@@H](Cc1c[nH]cn1)C(=O)N[C@H](C(=O)N[C@@H](CCCCN)C(=O)N[C@@H](Cc1ccccc1)C(=O)N[C@H](C(=O)N[C@@H](CS)C(=O)N[C@@H](CCC(N)=O)C(=O)N[C@@H](CCCCN)C(=O)N[C@@H](CCCCN)C(=O)N1CCC[C@H]1C(=O)N[C@@H](CC(C)C)C(=O)N[C@@H](CO)C(=O)N[C@@H](CCCCN)C(=O)N[C@@H](CC(C)C)C(=O)N[C@@H](CCSC)C(=O)N[C@@H](CCCCN)C(=O)N[C@@H](CS)C(=O)N[C@@H](CCCCN)C(=O)N[C@@H](CCCCN)C(=O)N[C@@H](C)C(=O)N[C@@H](CC(C)C)C(=O)N[C@@H](CC(=O)O)C(=O)N[C@@H](CCCNC(=N)N)C(=O)O)C(C)C)[C@@H](C)O)C(C)C [LP16] (H-FRSQFPICKNLVNHTKFVCQKKPLSKLMKCKKALDR-OH)	–	–	–	>128	>128	>128	>128	–	–	–	–	–	–	–	–	–	–	–	–	–	–
